Results from patent US6558954B1, “Phenotypic conversion of cells mediated by external guide sequences” (priority 1996, dated 2003).

System: bacterial species tested
Assay: TMP-mediated delivery of EGS, overall statement for the bacterial species tested
Format: cell-based
Settings: E. coli, P. aeruginosa, S. aureus, B. subtilis (FIG. 2)
Excerpt: The results in Example 1 indicate enhanced delivery of a nucleic acid to the Gram negative organism E. coli. […] Staphylococcus aureus (Gram positive), Pseudomonas aeruginosa (Gram negative) and Bacillus subtilis (Gram positive) were obtained from the ATCC and grown overnight. The bacteria were washed with TB and resuspended to give an OD of 1.0. TMP/EGS complexes were set up as in Example 1 and delivered to the cells.
The cells were washed three times with TB and then treated with lysozyme solutions with EDTA (for Gram negative) or without EDTA (for Gram positive) according to the protocol of Merchant et al., J. Photochem. Photobiol. B: Biol. 32:153-157 (1996). The amount of EGS present in the cell pellet and the cell wall fraction was calculated following scintillation counting.

## C[n+]1ccc(-c2c3nc(c(-c4cc[n+](C)cc4)c4ccc([nH]4)c(-c4cc[n+](C)cc4)c4nc(c(-c5cc[n+](C)cc5)c5ccc2[nH]5)C=C4)C=C3)cc1 [TMP, tetra meso (n-methyl 4-pyridyl)porphine]
  ability of TMP to deliver EGS: able to deliver EGS to the bacterial species tested
